According to patent US20150018403A1, “FLUORENE-AMIDE COMPOUNDS AND PHARMACEUTICAL USE THEREOF” (JAPAN TOBACCO INC., priority 2013, published 2015):
Like-named read-outs stand apart in the source and are kept apart here.

Experiments:
[1] = Metabolic stability test in rat liver microsome; format: in vitro ADME
human PDHK2 (hPDHK2) = target: T1, human PDHK2 (hPDHK2) (Homo sapiens, UniProt Q15119); assay: Inhibitory action of PDHK2 activity in vitro (residual PDH activity after kinase reaction); format: biochemical
T1 construct: made in house; host or cells: Escherichia coli BL21(DE3), pET17b vector
Procedure: The inhibitory action of PDHK activity was assessed indirectly by measuring the residual PDH activity after kinase reaction in the presence of a test compound.
In the case of human PDHK2 (hPDHK2, Genbank Accession No. BC040478.1), modified hPDHK2 cDNA wherein FLAG-Tag sequence was added to the N terminus of hPDHK2 cDNA clone (pReceiver-M01/PDK2-GeneCopoeia) was prepared by PCR and cloned into a vector (pET17b-Novagen). The recombinant construct was transformed into Escherichia coli (DH5α-TOYOBO). The recombinant clones were identified, and plasmid DNA was isolated and subjected to the DNA sequence analysis. One clone which had the expected nucleic acid sequence was selected for expression work.
For expression of hPDHK2 activity, Escherichia coli strain BL21(DE3) cells (Novagen) were transformed with the pET17b vector containing modified hPDHK2 cDNA. The Escherichia coli were grown to an optical density 0.6 ([…]) at 30° C. Protein expression was induced by the addition of 500 μmol/L isopropyl-β-thiogalactopyranoside. The Escherichia coli were cultured at 30° C. for 5 hr and harvested by centrifugation. Resuspension of the Escherichia coli paste was disrupted by a microfluidizer. FLAG-Tagged protein was purified using FLAG affinity gel. The gel was washed with 20 mmol/L HEPES-NaOH, 500 mmol/L sodium chloride, 1% ethylene glycol, and 0.1% Pluronic F-68 (pH 8.0), and the binding protein was eluted with 20 mmol/L HEPES-NaOH, 100 μg/mL FLAG peptide, 500 mmol/L sodium chloride, 1% ethylene glycol, and 0.1% Pluronic F-68 (pH 8.0). The eluted fractions containing FLAG-Tagged protein were pooled, dialyzed against 20 mmol/L HEPES-NaOH, 150 mmol/L sodium chloride, 0.5 mmol/L EDTA, 1% ethylene glycol, and 0.1% Pluronic F-68 (pH 8.0), and preserved at −80° C.
0.05 U/mL PDH and 0.8 μg/mL hPDHK2 were mixed in a buffer (50 mmol/L 3-morpholinopropanesulfonic acid (pH 7.0), 20 mmol/L dipotassium hydrogen phosphate, 60 mmol/L potassium chloride, 2 mmol/L magnesium chloride, 0.4 mmol/L EDTA, and 0.2% Pluronic F-68, 2 mmol/L dithiothreitol), and the mixture was incubated at 4° C. overnight to obtain a PDH/hPDHK2 complex. The test compounds were diluted with DMSO. […] DMSO (1.5 μL) was added to control wells instead of the test compound. […] The mixture was incubated at room temperature for 90 min, and the residual PDH activity was measured. The absorbance at 340 nm before and after PDH reaction was measured using a microplate reader to detect NADH produced by the PDH reaction. The hPDHK2 inhibition rate (%) of the test compound was calculated from the formula [{(PDH activity of test compound−PDH activity of control)/PDH activity of blank−PDH activity of control)}×100].

[2] = Metabolic stability test in human liver microsome; format: in vitro ADME; settings: 37° C., 5 μM
Procedure: Human liver microsome (manufactured by Xenotech, H0620, final concentration (after dilution), 0.2 mg protein/mL) was suspended in 100 mM potassium phosphate buffer (pH 7.4, containing β-nicotinamide adenine dinucleotide phosphate: 1.3 mM, D-glucose-6-phosphate: 3.3 mM, magnesium chloride: 3.3 mM, glucose-6-phosphate dehydrogenase: 0.45 U/mL), and further mixed with a test compound dissolved in MeCN/DMSO (95/5) (final concentration 5 μM). The mixture was incubated at 37° C. for 10 min and 60 min, acetonitrile containing formic acid (final concentration 0.1%) was added, and the mixture was centrifuged. The test compound (unmodified) in the supernatant was measured by high performance liquid chromatography/mass spectrometry (LC/MS) (manufactured by Waters, LC: Acquity UPLC, MS:SQ Detector or TQ Detector). The residual ratio (%) was calculated from the obtained measurement value.

tissue PDH activity = assay: Ex vivo PDH activation assay (liver and epididymal adipose tissue mitochondrial fractions after oral dosing); format: in vivo, Sprague-Dawley rats; settings: 3 mg/kg, rat
Procedure: The action of test compound on tissue PDH activity was evaluated. NADH production was detected via p-iodonitrotetrazolium violet (INT)-coupled system to measure PDH activity.
Normal male Sprague-Dawley rats were randomly allocated m to the vehicle group and the test compound groups. The vehicle (0.5% aqueous methylcellulose solution, 5 mL/kg) or the test compound was orally administered to the rats. At 5 or 20 hr after administration, the rats were anesthetized with an intraperitoneal injection of sodium pentobarbital (60 mg/kg), and liver slices and epididymal adipose tissues were collected.
To the liver slices were rapidly added 9 volumes of ice-cold homogenization buffer (0.25 mol/L sucrose, 5 mmol/L tris(hydroxymethyl)aminomethane hydrochloride (pH 7.5), 2 mmol/L EDTA), and the mixtures were homogenized using a Polytron homogenizer. The homogenates were centrifuged at 600×g, 4° C. for 10 min to obtain the supernatant. The supernatants (1 mL) were centrifuged at 16,000×g, 4° C. for 10 min to collect the precipitates. The precipitates were washed by resuspension in the homogenization buffer (1 mL) and centrifuged in the same manner. The precipitates were frozen with liquid nitrogen and stored at −80° C. as the liver mitochondrial fraction.
To the adipose tissues were rapidly added 3 volumes of an ice-cold homogenization buffer, and the mixtures were homogenized using a Polytron homogenizer. The homogenates were centrifuged at 600×g, 4° C. for 10 min to obtain the supernatant. The supernatants were centrifuged at 16,000×g, 4° C. for 10 min to collect the precipitates. The precipitates were washed by resuspension in the homogenization buffer (1 mL) and centrifuged in the same manner. The precipitates were frozen with liquid nitrogen and stored at −80° C. as the adipose tissue mitochondrial fraction.
The mitochondrial fractions were thawed and suspended with the sample buffer (0.25 mol/L sucrose, 20 mmol/L tris(hydroxymethyl)aminomethane hydrochloride (pH 7.5), 50 mmol/L potassium chloride, and 1 mL/L 4-(1,1,3,3-tetramethylbutyl)phenyl-polyethylene glycol (Triton X-100)). Active PDH activity (PDHa activity) and total PDH activity (PDHt activity) were measured to evaluate the PDH activity. For the measurement of the PDHt activity, equal amounts of the mitochondrial suspension and the activation buffer (0.25 mol/L sucrose, 20 mmol/L tris(hydroxymethyl)aminomethane hydrochloride (pH 7.5), 50 mmol/L potassium chloride, 1 mL/L Triton X-100, 4 mmol/L calcium chloride, 40 mmol/L magnesium chloride, 10 mmol/L sodium dichloroacetate) were mixed, and the mixtures were incubated at 37° C. for 10 min. Forty microliters of the mitochondrial suspensions diluted with a sample buffer were added to a 96-well microplate for activity measurement and blank measurement. Then 180 μL of the reaction mixture (0.056 mmol/L potassium phosphate buffer (pH 7.5), 5.6 mmol/L DL-carnitine, 2.8 mmol/L NAD, 0.22 mmol/L thiamin pyrophosphate, 0.11 mmol/L Coenzyme A, 1.1 mL/L Triton X-100, 1.1 mmol/L magnesium chloride, 1.1 g/L bovine serum albumin, 0.67 mmol/L INT, 7.2 μmol/L phenazine methosulfate, 28 mmol/L sodium oxamate) was added to each well, and then 20 μL of 50 mmol/L sodium pyruvate for activity measurement or water for blank measurement were added. The mixtures were incubated at room temperature under shading. The absorbances at 500-750 nm, which were attributable to reduction of INT, the final electron acceptor, were measured using a microplate reader over time and the changes in the absorbance were calculated. The PDH activity was calculated by subtraction of the change in absorbance of the blank well from that of the activity measurement well. The percentage of the PDHa activity to the PDHt activity was calculated and taken as an index of the PDH activation.

hERG = target: T2, hERG (Homo sapiens, UniProt Q12809); assay: hERG whole cell patch clamp test; format: cell-based; settings: human, HEK293 cells transfected with hERG, pH 7.4; concentration 10 μmol/L; read-out: hERG inhibition rate (%)
T2 construct: host or cells: HEK293
Procedure: (§1) Using human ether-a-go-go related gene (hERG)-transfected HEK293 cells (Cytomyx Limited), an influence on hERG current was examined according to the whole cell patch clamp technique. The hERG-transfected HEK293 cells were passaged using a CO2 incubator (BNA-111, TABAI ESPEC CORP.) under the set conditions of 37° C., 5% CO2, saturated humidity. Culture containers used were Collagen Type I Coated 75 cm^2 flask (4123-010, AGC TECHNO GLASS CO., Ltd.) and Collagen Type I Coated 35 mm culture dish (4000-010, AGC TECHNO GLASS CO., Ltd.). The culture medium used was E-MEM (Eagle Minimum Essential Medium (Earle's Salts, Nikken biomedical laboratory) added with 10% FCS (Fetal bovine serum, BioWest, L.L.C.) and 1% MEM Non-Essential Amino Acids Solution (NEAA, Invitrogen Corporation). Geneticin for the selection of hERG gene expressing cells was added thereto to a concentration of 400 μg/mL. As the cells for the measurement, 3×10^4 hERG-transfected HEK293 cells were plated on a 35 mm culture dish 4 to 7 days before measurement of the hERG current. The culture dish produced for the measurement contained the above-mentioned culture medium without geneticin (Invitrogen Corporation).
(§2) The highest evaluation concentration of each compound was determined from the highest concentration at which precipitation was not found in the standard extracellular fluid (NaCl: 140 mmol/L, KCl: 2.5 mmol/L, MgCl2: 2 mmol/L, CaCl2: 2 mmol/L, HEPES: 10 mmol/L, glucose: 10 mmol/L (adjusted to pH 7.4 with Tris-base)). As the application method, each solution to be applied was ejected from a Y-tube having a tip diameter of about 0.25 mm, which was adjacent (about 2 mm) to the cells, and applied to the cells. The ejection rate was about 0.4 mL/min.
(§3) The experiment was performed at room temperature under a phase contrast microscope. The 35 mm culture dish plated with the cells was set on a measurement apparatus, and the standard extracellular fluid was continuously applied to the cells from the Y-tube. A glass electrode for the measurement was filled with an intracellular fluid (Potassium Gluconate: 130 mmol/L, KCl: 20 mmol/L, MgCl2: 1 mmol/L, ATP-Mg: 5 mmol/L, EGTA: 3.5 mmol/L, HEPES: 10 mmol/L (adjusted to pH 7.2 with Tris-base)). A conventional whole cell patch clamp method was applied to the cells, and the maintenance electric potential was set to −80 mV. Under a fixed electric potential, the whole cell current was amplified by an amplifier for patch clamp (AXOPATCH-200B, Axon Instruments, Inc.), and the data was loaded into a computer (IMC-P642400, Intermedical Co., Ltd.) using a data acquisition analysis software (pCLAMP 9.2, Axon Instruments, Inc.).
(§4) The measurement of the hERG current was performed in the following two steps. In both cases, the hERG current was initiated by giving a command potential (maintenance electric potential −80 mV, prepulse+20 mV, 1.5 sec, test-pulse −50 mV, 1.5 sec).
(§5) Step (1): The above-mentioned command potential was given at 0.1 Hz for 2 min.
(§6) Step (2): The above-mentioned command potential was subjected to P/3 subtraction of pCLAMP 9.2 to remove leak current. This was repeated three times and an average thereof was taken as hERG current.
(§7) Subsequent to step (1), Step (2) was performed (about 3 min), and the maximum tail current obtained by applying a test-pulse to the hERG current obtained by the method of step (2) was taken as hERG current value. Hereafter, the operations of (1) and (2) were alternately repeated until completion of the experiment and the hERG current value was measured.
(§8) Stable hERG current value was recorded three times (about 10 min), and the standard extracellular fluid was instantaneously exchanged with each application fluid. The hERG current value was measured three times (about 10 min) in the same manner during perfusion of the application fluid, and the current value obtained by the 3rd measurement was taken as hERG current value after perfusion of the application fluid. […]

[3] = target: T3, hERG current (hERG-transfected HEK293 cells) (Homo sapiens, UniProt Q12809); assay: hERG whole cell patch clamp test; format: cell-based; settings: whole cell patch clamp, hERG-transfected HEK293 cells
T3 construct: host or cells: HEK293
Procedure: as §1, §2, §3, §4, §5, §6, §7, §8

T2 sequence (Q12809 whole entry): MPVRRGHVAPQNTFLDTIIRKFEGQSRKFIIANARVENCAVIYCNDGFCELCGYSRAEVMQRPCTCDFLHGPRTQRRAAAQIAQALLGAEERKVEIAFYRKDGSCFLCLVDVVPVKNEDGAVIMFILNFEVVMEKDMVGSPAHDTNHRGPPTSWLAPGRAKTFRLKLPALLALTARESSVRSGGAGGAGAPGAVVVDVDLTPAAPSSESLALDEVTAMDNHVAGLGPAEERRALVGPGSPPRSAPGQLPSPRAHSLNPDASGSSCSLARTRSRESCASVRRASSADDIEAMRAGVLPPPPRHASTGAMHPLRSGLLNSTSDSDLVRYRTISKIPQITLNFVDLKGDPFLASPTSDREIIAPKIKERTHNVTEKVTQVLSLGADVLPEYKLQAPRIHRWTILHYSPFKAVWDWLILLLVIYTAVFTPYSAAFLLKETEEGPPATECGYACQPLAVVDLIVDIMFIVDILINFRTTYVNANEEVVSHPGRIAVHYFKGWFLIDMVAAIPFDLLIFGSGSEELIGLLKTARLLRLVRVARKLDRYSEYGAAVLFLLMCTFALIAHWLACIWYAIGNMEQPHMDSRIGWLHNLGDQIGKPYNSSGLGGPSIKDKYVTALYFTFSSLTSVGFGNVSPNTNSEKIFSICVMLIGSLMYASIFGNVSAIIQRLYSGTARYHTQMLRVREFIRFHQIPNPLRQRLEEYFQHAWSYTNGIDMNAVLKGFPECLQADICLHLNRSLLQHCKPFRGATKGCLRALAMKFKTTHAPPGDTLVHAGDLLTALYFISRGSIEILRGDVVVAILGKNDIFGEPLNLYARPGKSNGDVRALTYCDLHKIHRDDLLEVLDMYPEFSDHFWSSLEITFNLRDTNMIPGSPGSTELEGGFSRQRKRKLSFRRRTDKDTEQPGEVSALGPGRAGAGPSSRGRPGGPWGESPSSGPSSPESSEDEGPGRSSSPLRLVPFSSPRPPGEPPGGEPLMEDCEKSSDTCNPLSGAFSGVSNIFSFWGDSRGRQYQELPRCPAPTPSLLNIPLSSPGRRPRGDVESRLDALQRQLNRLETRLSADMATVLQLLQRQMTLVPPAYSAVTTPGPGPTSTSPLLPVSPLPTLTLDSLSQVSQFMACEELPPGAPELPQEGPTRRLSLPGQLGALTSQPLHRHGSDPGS
T3 sequence (Q12809 whole entry): as above

SMILES	stability in liver microsome (residual ratio %) ([1]; 10 min) [%]	stability in liver microsome (residual ratio %) ([1]; 60 min) [%]	IC50 (human PDHK2 (hPDHK2); PDH/hPDHK2 complex, 45 min kinase reaction at room temperature, read-out: hPDHK2 IC50) [nM]	stability in liver microsome (residual ratio %) ([2]; 10 min) [%]	stability in liver microsome (residual ratio %) ([2]; 60 min) [%]	PDHa activity (% PDHt activity) (tissue PDH activity; adipose tissue, 5 hr after oral administration)	PDHa activity (% PDHt activity) (tissue PDH activity; adipose tissue, 20 hr after oral administration)	PDHa activity (% PDHt activity) (tissue PDH activity; liver, 5 hr after oral administration)	PDHa activity (% PDHt activity) (tissue PDH activity; liver, 20 hr after oral administration)	inhibition at 10 μmol/L (hERG) [%]	IC50 [3] [nM]	IC50 (human PDHK2 (hPDHK2)) [nM]
C[C@@H](O)COc1cc(-c2cnn(C(C)(C)C(N)=O)c2)c2c(c1)[C@@](O)(C(F)(F)F)c1ccccc1-2 [compound (3), 2-(4-{(9R)-9-hydroxy-2-[(2R)-2-hydroxypropoxy]-9-(trifluoromethyl)-9H-fluoren-4-yl}-1H-pyrazol-1-yl)-2-methylpropanamide]	99.2	99.8	4.7	98.3	99.7	59 ± 8	54	74 ± 11	42			
NC(=O)Cn1cc(-c2cc(OCCC34CC5CC(CC(O)(C5)C3)C4)cc3c2-c2ccccc2[C@]3(O)C(F)(F)F)cn1 [compound (A), 2-(4-{(9R)-9-Hydroxy-2-[2-(3-hydroxyadamantan-1-yl)ethoxy]-9-(trifluoromethyl)-9H-fluoren-4-yl}-1H-pyrazol-1-yl)acetamide, reference compound]	24.8	0.0		34.8	0.0					11.8	> 10000	5.1
